Experimental data from US8808500B2, “Method for the use of oxidants for microbial control under reducing conditions” (Lonza Inc., priority 2011, dated 2014).

Assays:
[1] = ORP of sodium borohydride solution over time after adding aldehyde donor; format: physicochemical
Protocol: Aqueous solutions containing sodium borohydride were mixed at 21° C. to obtain a solution having an initial borohydride content (as NaBH4) of 30-50 ppm, an alkalinity (as CaCO3) of 400 ppm, and a pH of 8.5-9.5. The temperature of the solution was maintained at 21° C. and the ORP of the solution was measured at specified time intervals. The procedure consisted of adding a known amount of aldehyde donor, such as dimethyloldimethylhydantoin or glyoxal, to the samples at a known molar ratio with respect to the borohydride content and following the time-dependence of the ORP.
(§1) For comparison, the residual total halogen (as Cl2) was analyzed without the use of dimethyloldimethylhydantoin.

[2] = Residual total halogen (DPD) after adding sodium hypochlorite to borohydride solution; format: physicochemical; details: for Total Halogen with DMDMH: borohydride solution treated with DMDMH; for Total Halogen without DMDMH: borohydride solution, no DMDMH
Protocol: The remaining halogen concentration was then measured by standard DPD total halogen methodologies over time.
as §1

[3] = 2 min after addition of sodium hypochlorite
[4] = 43 min after addition of sodium hypochlorite

| Total Halogen without DMDMH [2, 3] [ppm as Cl2] | Total Halogen without DMDMH [2, 4] [ppm as Cl2] | Structure (SMILES) | ORP - DMDMH treated [1, 3] [mV] | ORP - DMDMH treated [1, 4] [mV] | Total Halogen with DMDMH [2, 3] [ppm as Cl2] | Total Halogen with DMDMH [2, 4] [ppm as Cl2] |
| --- | --- | --- | --- | --- | --- | --- |
|  |  | CC1(C)C(=O)N(CO)C(=O)N1CO [DMDMH, dimethyloldimethylhydantoin] | −251 | −77 | 1.59 | 1.33 |
| <0.1 | <0.1 | OCl [sodium hypochlorite, reference compound] |  |  |  |  |
